# Measurements reported in ChEMBL document CHEMBL4043290, “Structure-based Design of Pyridone-Aminal eFT508 Targeting Dysregulated Translation by Selective Mitogen-activated Protein Kinase Interacting Kinases 1 and 2 (MNK1/2) Inhibition” (J Med Chem, 2018).
# Calls of active or inactive are those of the source. No cut-off for these calls is given here.
# Columns and labels:
# [1] = Therapeutic index, ratio of tumor growth inhibition of human TMD8 cells xenografted in NOD SCID mouse to body weight loss in NOD SCID mouse xenografted with human TMD8 cells
# Mus musculus [2] = assay: In vivo inhibition of MNK1/2 in human TMD8 cells xenografted in NOD SCID mouse assessed as reduction in eIF4E phosphorylation at Ser209 administered as po qd for 14 days measured over 24 hrs post last dose by Western blot method; assay type: functional, organism-based
# Mus musculus [3] = assay: Toxicity in NOD SCID mouse xenografted with human TMD8 cells assessed as body weight loss at 1 to 10 mg/kg, po qd administered for 14 days measured twice a week during compound dosing; assay type: organism-based; details: in vivo, 336 h
# [4] = Antiproliferative activity against human multiple myeloma cells after 72 hrs by CellTiter-Glo assay; assay type: functional, cell-based; details: Multiple myeloma cell
# [5] = Protein binding in dog plasma; assay type: ADME, cell-free, Canis lupus familiaris; details: read-out: PPB
# [6] = target: T1, MAP kinase-interacting serine/threonine-protein kinase 1/2 (Homo sapiens, UniProt Q9HBH9+Q9BUB5); assay: Inhibition of MNK1/2 in human TMD8 cells assessed as decrease in IL-6 levels after 48 hrs by ELISA; assay type: cell-based
# [7] = Oral bioavailability in Sprague-Dawley rat at 10 mg/kg by LC-ESI-TOF/MS or LC-ESI-MS/MS method; assay type: ADME, organism-based; details: in vivo
# [8] = Metabolic stability in mouse liver microsomes assessed as parent compound remaining at 1 uM after 30 mins by LC-ESI-TOF/MS method; assay type: ADME, microsome; details: read-out: Stability
# [9] = Antiproliferative activity against human CML cells after 72 hrs by CellTiter-Glo assay; assay type: functional, cell-based
# TMD8 [10] = assay: Effect on 4E-BP1 expression in human TMD8 cells after 2 hrs by immunoblot method; assay type: functional, cell-based
# [11] = Antiproliferative activity against human MCL cells after 72 hrs by CellTiter-Glo assay; assay type: functional, cell-based
# [12] = Oral bioavailability in cynomolgus monkey at 3 mg/kg by LC-ESI-TOF/MS or LC-ESI-MS/MS method; assay type: ADME, organism-based, Macaca fascicularis; details: in vivo
# [13] = Metabolic stability in rat liver microsomes assessed as parent compound remaining at 1 uM after 30 mins by LC-ESI-TOF/MS method; assay type: ADME, microsome; details: read-out: Stability
# Mus musculus [14] = assay: Toxicity in NCr nu/nu mouse xenografted with human MDA-MB-231 cells assessed as body weight loss at 1 to 10 mg/kg, po qd administered for 23 days measured twice a week during compound dosing; assay type: organism-based; details: in vivo, 552 h
# [15] = target: T1, MAP kinase-interacting serine/threonine-protein kinase 1/2; assay: Inhibition of MNK1/2 in human TMD8 cells assessed as decrease in TNF-alpha levels after 48 hrs by ELISA; assay type: cell-based
# [16] = target: T1, MAP kinase-interacting serine/threonine-protein kinase 1/2; assay: Inhibition of MNK1/2 in human TMD8 cells assessed as decrease in IL-8 levels after 48 hrs by ELISA; assay type: cell-based
# [17] = Antiproliferative activity against human DLBCL cells after 72 hrs by CellTiter-Glo assay; assay type: functional, cell-based
# [18] = Antiproliferative activity against human ALCL cells after 72 hrs by CellTiter-Glo assay; assay type: functional, cell-based
# [19] = Antiproliferative activity against human T-ALL cells after 72 hrs by CellTiter-Glo assay; assay type: functional, cell-based
# [20] = target: Eukaryotic translation initiation factor 4E-binding protein 1 (Homo sapiens) (UniProt Q13541); assay: Effect on 4E-BP1 phosphorylation at Thr37/46 in human TMD8 cells at 0.01 to 10 uM after 2 hrs by immunoblot method; assay type: cell-based
# Chain of Eukaryotic translation initiation factor 4E-binding protein 1 (Homo sapiens) (Q13541 whole entry): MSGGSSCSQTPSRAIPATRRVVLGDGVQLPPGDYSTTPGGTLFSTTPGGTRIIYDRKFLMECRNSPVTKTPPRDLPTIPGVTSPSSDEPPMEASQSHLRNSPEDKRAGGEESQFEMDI
# [21] = target: T1, MAP kinase-interacting serine/threonine-protein kinase 1/2; assay: Inhibition of MNK1/2 in human TMD8 cells assessed as decrease in TNF-alpha mRNA half life at 10 uM incubated for 24 hrs by TaqMan assay relative to control; assay type: cell-based
# [22] = Protein binding in mouse plasma; assay type: ADME, cell-free; details: read-out: PPB
# [23] = target: T1, MAP kinase-interacting serine/threonine-protein kinase 1/2; assay: Inhibition of MNK1/2 in human TMD8 cells assessed as decrease in IL-8 mRNA half life at 10 uM incubated for 24 hrs by TaqMan assay relative to control; assay type: cell-based
# [24] = Antiproliferative activity against human B-PLL cells after 72 hrs by CellTiter-Glo assay; assay type: functional, cell-based
# [25] = Protein binding in human plasma; assay type: ADME, cell-free; details: read-out: PPB
# [26] = Antiproliferative activity against human B-ALL cells after 72 hrs by CellTiter-Glo assay; assay type: functional, cell-based
# physchem = details: octanol/water
# TMD8 [27] = assay: Antitumor activity against human TMD8 cells xenografted in NOD SCID mouse assessed as tumor growth inhibition at 10 mg/kg, po qd administered for 14 days relative to control; assay type: functional; details: 336 h, read-out: TGI
# [28] = Antitumor activity against human HBL1 cells xenografted in NOD SCID mouse assessed as tumor growth inhibition at 10 mg/kg, po qd administered for 12 days relative to control; assay type: functional; details: 288 h, read-out: TGI
# [29] = Antiproliferative activity against human Burkitt lymphoma cells after 72 hrs by CellTiter-Glo assay; assay type: functional, cell-based; details: Burkitt lymphoma cell
# [30] = Therapeutic index, ratio of tumor growth inhibition of human MDA-MB-231 cells xenografted in NCr nu/nu mouse to body weight loss in NCr nu/nu mouse xenografted with human MDA-MB-231 cells
# [31] = Therapeutic index, ratio of tumor growth inhibition of human HBL1 cells xenografted in NOD SCID mouse to body weight loss in NOD SCID mouse xenografted with human HBL1 cells
# MDA-MB-231 [32] = assay: Antitumor activity against human MDA-MB-231 cells xenografted in NCr nu/nu mouse assessed as tumor growth inhibition at 1 to 10 mg/kg, po qd administered for 23 days relative to control; assay type: functional
# [33] = Antitumor activity against human HBL1 cells xenografted in NOD SCID mouse assessed as tumor growth inhibition at 1 mg/kg, po qd administered for 12 days relative to control; assay type: functional; details: 288 h, read-out: TGI
# [34] = Protein binding in rat plasma; assay type: ADME, cell-free; details: read-out: PPB
# MDA-MB-231 [35] = assay: Growth inhibition of human MDA-MB-231 cells after 72 hrs by CellTiter-Glo assay; assay type: functional, cell-based
# Homo sapiens = species on record: Homo sapiens; assay: Effect on MAPK phosphorylation at Thr202/Tyr204 in human TMD8 cells at 0.01 to 10 uM after 2 hrs by immunoblot method; assay type: cell-based
# [36] = target: Serine/threonine-protein kinase 17A (Homo sapiens, UniProt Q9UEE5); assay: Inhibition of DRAK1 (unknown origin)
# Chain of Serine/threonine-protein kinase 17A (Q9UEE5 whole entry): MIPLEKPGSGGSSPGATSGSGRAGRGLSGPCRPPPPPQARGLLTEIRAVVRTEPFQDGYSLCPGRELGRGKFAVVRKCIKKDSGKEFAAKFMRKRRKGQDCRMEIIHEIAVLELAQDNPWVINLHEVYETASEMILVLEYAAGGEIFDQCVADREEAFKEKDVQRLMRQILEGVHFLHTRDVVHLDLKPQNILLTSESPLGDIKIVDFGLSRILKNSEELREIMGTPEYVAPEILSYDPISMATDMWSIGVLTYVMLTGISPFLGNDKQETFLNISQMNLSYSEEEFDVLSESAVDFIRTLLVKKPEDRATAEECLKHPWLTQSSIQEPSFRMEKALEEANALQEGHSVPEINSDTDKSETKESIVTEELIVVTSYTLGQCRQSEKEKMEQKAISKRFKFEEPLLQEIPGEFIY
# [37] = target: T1, MAP kinase-interacting serine/threonine-protein kinase 1/2; assay: Inhibition of MNK1/2 in human TMD8 cells assessed as decrease in eIF4E phosphorylation at Ser209 after 2 hrs by immunoblot method; assay type: cell-based
# [38] = Protein binding in monkey plasma; assay type: ADME, cell-free, Macaca mulatta; details: rhesus monkey, read-out: PPB
# [39] = Oral bioavailability in Beagle dog at 3 mg/kg by LC-ESI-TOF/MS or LC-ESI-MS/MS method; assay type: ADME, organism-based, Canis lupus familiaris; details: in vivo
# Mus musculus [40] = assay: Toxicity in NOD SCID mouse xenografted with human HBL1 cells assessed as body weight loss at 1 to 10 mg/kg, po qd administered for 12 days measured twice a week during compound dosing; assay type: organism-based; details: in vivo, 288 h
# in vitro = details: human, Caco-2
# [41] = target: Dual specificity protein kinase CLK4 (Homo sapiens, UniProt Q9HAZ1); assay: Inhibition of CLK4 (unknown origin)
# Chain of Dual specificity protein kinase CLK4 (Q9HAZ1 whole entry): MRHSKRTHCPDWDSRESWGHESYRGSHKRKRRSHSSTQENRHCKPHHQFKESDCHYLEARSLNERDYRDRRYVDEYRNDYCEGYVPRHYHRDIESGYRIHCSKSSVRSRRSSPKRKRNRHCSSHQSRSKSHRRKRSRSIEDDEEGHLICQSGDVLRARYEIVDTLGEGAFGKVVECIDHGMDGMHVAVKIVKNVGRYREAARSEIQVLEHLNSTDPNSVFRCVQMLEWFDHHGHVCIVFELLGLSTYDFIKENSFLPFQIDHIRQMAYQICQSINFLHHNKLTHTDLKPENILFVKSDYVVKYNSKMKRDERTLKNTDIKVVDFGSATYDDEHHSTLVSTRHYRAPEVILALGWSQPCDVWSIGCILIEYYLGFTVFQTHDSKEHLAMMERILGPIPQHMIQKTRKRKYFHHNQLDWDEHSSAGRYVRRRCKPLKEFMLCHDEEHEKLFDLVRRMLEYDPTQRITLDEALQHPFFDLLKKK
# [42] = Antiproliferative activity against human AML cells after 72 hrs by CellTiter-Glo assay; assay type: functional, cell-based
# [43] = Oral bioavailability in Balb/c mouse at 10 mg/kg by LC-ESI-TOF/MS or LC-ESI-MS/MS method; assay type: ADME, organism-based; details: in vivo
# TMD8 [44] = assay: Antitumor activity against human TMD8 cells xenografted in NOD SCID mouse assessed as tumor growth inhibition at 1 mg/kg, po qd administered for 14 days relative to control; assay type: functional; details: 336 h, read-out: TGI
# [45] = target: T1, MAP kinase-interacting serine/threonine-protein kinase 1/2; assay: Inhibition of MNK1/2 in human TMD8 cells assessed as decrease in IL-6 mRNA half life at 10 uM incubated for 24 hrs by TaqMan assay relative to control; assay type: cell-based
# Mus musculus [46] = assay: In vivo inhibition of MNK1/2 in human TMD8 cells xenografted in NOD SCID mouse assessed as reduction in eIF4E phosphorylation at Ser209 at 1 mg/kg, po qd administered for 14 days measured over 8 hrs post last dose by Western blot method relative to control; assay type: functional
# [47] = Metabolic stability in human liver microsomes assessed as parent compound remaining at 1 uM after 30 mins by LC-ESI-TOF/MS method; assay type: ADME, microsome; details: read-out: Stability
structure (smiles),measurement,setting,value
Cc1cc(Nc2cc(N)ncn2)c(=O)n2c1C(=O)NC21CCCCC1 [TOMIVOSERTIB],TI,[1],>=10
same,IC90,Mus musculus [2],0.376 µM
same,IC50,"Mus musculus [2]; Mus musculus, TMD8",0.0158 µM
same,Activity,Mus musculus [3],Non-Toxic
same,IC50,[4],< 10 µM
same,fraction unbound,[5],0.5
same,inhibition,[6],Dose-dependent effect
same,bioavailability,[7],85%
same,"remaining at 0.5 h, 1 µM",[8],90%
same,IC50,[9],> 30 µM
same,Activity,TMD8 [10],inactive
same,IC50,[11],> 30 µM
same,bioavailability,[12],24%
same,"remaining at 0.5 h, 1 µM",[13],93%
same,Activity,Mus musculus [14],Non-Toxic
same,inhibition,[15],Dose-dependent effect
same,inhibition,[16],Dose-dependent effect
same,IC50,[17],< 10 µM
same,IC50,[18],> 30 µM
same,IC50,[19],> 30 µM
same,Activity,[20],inactive
same,fold change (FC),[21],1.5 to 2
same,fraction unbound,[22],0.5
same,fold change (FC),[23],1.5 to 2
same,IC50,[24],> 30 µM
same,fraction unbound,[25],0.5
same,IC50,[26],> 30 µM
same,logP,physchem,2.7
same,inhibition in vivo at 10 mg/kg,TMD8 [27],75%
same,inhibition in vivo at 10 mg/kg,[28],96%
same,IC50,[29],> 30 µM
same,TI,[30],>=10
same,TI,[31],>=10
same,TGI,MDA-MB-231 [32],>100%
same,inhibition in vivo at 1 mg/kg,[33],66%
same,fraction unbound,[34],0.5
same,growth inhibition (GI),MDA-MB-231 [35],inactive
same,Activity,Homo sapiens,inactive
same,IC50,[36],0.131 µM
same,inhibition,[37],Dose-dependent effect
same,fraction unbound,[38],0.5
same,bioavailability,[39],> 100%
same,Activity,Mus musculus [40],Non-Toxic
same,"Papp A→B at 2 h, 5 µM",in vitro,7.1 ×10⁻⁶ cm/s
same,IC50,[41],0.787 µM
same,IC50,[42],> 30 µM
same,bioavailability,[43],79%
same,inhibition in vivo at 1 mg/kg,TMD8 [44],71%
same,fold change (FC),[45],1.5 to 2
same,inhibition in vivo at 1 mg/kg,Mus musculus [46],80%
same,"remaining at 0.5 h, 1 µM",[47],87%
